{"source": "ChEMBL document CHEMBL1201862", "about": "“PubChem BioAssay data set” (2004)", "key": {"[1]": {"test_system": "Streptococcus sp. 'group A'", "assay": "growth inhibition of control SK(-) GAS strain, dose response, counter-screen for streptokinase expression inhibitor project, luminescence, kanamycin, BacTiterGlo, confirmation (AID 1900)", "format": "functional, organism-based", "conditions": "read-out: EC50"}, "Streptococcus": {"test_system": "Streptococcus", "assay": "Group A Streptococcus viability loss, dose response, counter-screen for streptokinase expression inhibitor project, luminescence, BacTiterGlo (AID 1915);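 note: potency for reduction of bacterial viability or growth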", "format": "functional, organism-based"}, "Caspase-3": {"biological_target": "T1, Caspase-3 (Homo sapiens, UniProt P42574)", "T1 sequence (P42574 whole entry)": "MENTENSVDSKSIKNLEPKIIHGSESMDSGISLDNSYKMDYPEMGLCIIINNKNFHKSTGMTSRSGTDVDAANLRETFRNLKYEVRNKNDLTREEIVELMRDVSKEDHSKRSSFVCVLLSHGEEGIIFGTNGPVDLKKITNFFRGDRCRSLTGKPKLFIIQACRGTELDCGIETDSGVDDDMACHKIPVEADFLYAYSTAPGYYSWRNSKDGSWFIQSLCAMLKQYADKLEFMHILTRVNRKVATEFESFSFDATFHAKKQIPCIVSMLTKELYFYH", "assay": "SAR Analysis of small molecule inhibitors of Sentrin-specific proteases (SENPs) using a Caspase-3 Selectivity assay. [Related pubchem assays (depositor defined):AID2540, AID2599, AID434973, AID489001]", "format": "functional"}, "[2]": {"biological_target": "5'-AMP-activated protein kinase catalytic subunit alpha-1 (Homo sapiens, UniProt Q13131)", "format": "functional"}, "[3]": {"biological_target": "Dual specificity tyrosine-phosphorylation-regulated kinase 4 (Homo sapiens, UniProt Q9NR20)", "sequence (Q9NR20 whole entry)": "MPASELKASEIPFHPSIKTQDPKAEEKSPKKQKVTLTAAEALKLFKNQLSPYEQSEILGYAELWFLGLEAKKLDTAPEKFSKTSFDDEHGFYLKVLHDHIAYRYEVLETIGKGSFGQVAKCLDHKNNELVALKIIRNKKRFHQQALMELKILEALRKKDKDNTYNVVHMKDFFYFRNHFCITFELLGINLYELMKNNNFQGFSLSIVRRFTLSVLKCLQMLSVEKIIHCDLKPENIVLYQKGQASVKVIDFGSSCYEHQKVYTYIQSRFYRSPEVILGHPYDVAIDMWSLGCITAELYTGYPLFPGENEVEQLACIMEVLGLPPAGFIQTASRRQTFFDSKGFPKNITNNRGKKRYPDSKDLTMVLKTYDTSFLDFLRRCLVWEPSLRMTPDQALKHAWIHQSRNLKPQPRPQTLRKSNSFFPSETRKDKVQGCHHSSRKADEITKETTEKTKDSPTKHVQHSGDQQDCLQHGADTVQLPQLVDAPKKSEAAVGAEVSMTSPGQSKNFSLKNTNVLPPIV", "format": "functional"}, "[4]": {"biological_target": "Cyclin-dependent kinase 5 (Homo sapiens, UniProt Q00535)", "sequence (Q00535 whole entry)": "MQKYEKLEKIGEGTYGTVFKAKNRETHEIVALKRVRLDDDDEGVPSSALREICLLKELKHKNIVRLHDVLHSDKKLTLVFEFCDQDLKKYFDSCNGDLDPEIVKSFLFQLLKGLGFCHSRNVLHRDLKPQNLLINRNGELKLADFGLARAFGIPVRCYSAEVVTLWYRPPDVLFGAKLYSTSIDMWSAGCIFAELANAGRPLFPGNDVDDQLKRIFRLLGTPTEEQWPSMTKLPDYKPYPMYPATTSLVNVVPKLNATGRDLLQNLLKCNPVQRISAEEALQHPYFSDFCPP", "format": "functional"}, "[5]": {"biological_target": "Tyrosine-protein kinase Fyn (Homo sapiens, UniProt P06241)", "sequence (P06241 whole entry)": "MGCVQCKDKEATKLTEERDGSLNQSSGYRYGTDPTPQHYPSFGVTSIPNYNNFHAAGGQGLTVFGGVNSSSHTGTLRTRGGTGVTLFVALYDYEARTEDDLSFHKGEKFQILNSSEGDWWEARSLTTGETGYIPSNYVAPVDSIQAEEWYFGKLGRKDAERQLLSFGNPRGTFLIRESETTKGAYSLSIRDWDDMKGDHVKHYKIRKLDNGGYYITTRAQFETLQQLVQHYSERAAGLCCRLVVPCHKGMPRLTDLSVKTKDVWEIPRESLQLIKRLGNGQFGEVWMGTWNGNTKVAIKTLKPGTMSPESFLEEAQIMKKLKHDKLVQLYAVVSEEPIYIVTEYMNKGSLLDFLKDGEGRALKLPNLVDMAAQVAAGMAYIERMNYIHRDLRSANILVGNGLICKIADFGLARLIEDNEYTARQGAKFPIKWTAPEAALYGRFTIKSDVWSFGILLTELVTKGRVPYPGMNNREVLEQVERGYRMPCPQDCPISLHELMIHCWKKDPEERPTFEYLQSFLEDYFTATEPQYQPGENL", "format": "functional"}, "[6]": {"biological_target": "Serine/threonine-protein kinase PLK4 (Homo sapiens, UniProt O00444)", "format": "functional"}, "[7]": {"biological_target": "Interleukin-1 receptor-associated kinase 1 (Homo sapiens, UniProt P51617)", "format": "functional"}, "[8]": {"biological_target": "Serine/threonine-protein kinase PLK3 (Homo sapiens, UniProt Q9H4B4)", "format": "functional"}, "Ephrin type-A receptor 2": {"biological_target": "Ephrin type-A receptor 2 (Homo sapiens, UniProt P29317)", "sequence (P29317 whole entry)": "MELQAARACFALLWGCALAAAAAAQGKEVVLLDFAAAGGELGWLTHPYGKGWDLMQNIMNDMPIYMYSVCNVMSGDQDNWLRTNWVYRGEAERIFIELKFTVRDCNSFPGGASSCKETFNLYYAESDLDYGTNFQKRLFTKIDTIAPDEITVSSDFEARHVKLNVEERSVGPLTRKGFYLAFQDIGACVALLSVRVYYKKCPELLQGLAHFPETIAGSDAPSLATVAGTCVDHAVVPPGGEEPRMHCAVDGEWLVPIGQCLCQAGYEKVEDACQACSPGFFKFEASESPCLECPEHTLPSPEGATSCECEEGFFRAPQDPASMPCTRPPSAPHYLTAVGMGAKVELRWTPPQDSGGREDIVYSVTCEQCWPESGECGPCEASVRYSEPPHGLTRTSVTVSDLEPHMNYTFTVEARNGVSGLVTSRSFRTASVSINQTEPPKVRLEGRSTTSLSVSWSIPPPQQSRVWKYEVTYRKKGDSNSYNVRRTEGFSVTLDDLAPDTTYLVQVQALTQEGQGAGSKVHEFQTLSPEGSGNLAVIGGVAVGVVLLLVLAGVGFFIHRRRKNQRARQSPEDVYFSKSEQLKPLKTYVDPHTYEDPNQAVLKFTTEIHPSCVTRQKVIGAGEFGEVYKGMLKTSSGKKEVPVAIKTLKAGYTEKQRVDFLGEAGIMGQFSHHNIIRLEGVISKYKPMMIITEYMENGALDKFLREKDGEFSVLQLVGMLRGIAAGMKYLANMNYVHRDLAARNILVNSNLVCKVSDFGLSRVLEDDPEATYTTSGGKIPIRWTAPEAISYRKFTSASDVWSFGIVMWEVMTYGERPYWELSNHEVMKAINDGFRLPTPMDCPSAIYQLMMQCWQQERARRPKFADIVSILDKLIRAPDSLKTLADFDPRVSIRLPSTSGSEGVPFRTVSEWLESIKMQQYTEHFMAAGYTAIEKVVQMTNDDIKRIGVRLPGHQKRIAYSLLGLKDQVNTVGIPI", "format": "functional"}, "[9]": {"biological_target": "Tyrosine-protein kinase Lck (Homo sapiens, UniProt P06239)", "sequence (P06239 whole entry)": "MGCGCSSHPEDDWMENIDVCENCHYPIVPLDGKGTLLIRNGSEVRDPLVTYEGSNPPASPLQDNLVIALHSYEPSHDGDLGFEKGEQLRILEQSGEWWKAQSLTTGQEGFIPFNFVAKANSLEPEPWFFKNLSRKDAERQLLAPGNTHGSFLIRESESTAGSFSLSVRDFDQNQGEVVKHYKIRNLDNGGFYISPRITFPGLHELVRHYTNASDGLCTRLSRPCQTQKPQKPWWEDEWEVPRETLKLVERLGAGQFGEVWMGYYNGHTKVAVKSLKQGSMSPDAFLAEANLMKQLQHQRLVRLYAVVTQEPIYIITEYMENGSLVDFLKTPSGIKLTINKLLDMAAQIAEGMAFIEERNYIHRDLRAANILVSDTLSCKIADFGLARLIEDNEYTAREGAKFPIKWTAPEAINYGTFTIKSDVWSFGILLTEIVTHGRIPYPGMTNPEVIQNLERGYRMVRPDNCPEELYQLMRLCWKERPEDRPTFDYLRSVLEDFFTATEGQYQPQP", "format": "functional"}, "[10]": {"biological_target": "MAP kinase-activated protein kinase 5 (Homo sapiens, UniProt Q8IW41)", "format": "functional"}, "[11]": {"biological_target": "Glycogen synthase kinase-3 alpha (Homo sapiens, UniProt P49840)", "sequence (P49840 whole entry)": "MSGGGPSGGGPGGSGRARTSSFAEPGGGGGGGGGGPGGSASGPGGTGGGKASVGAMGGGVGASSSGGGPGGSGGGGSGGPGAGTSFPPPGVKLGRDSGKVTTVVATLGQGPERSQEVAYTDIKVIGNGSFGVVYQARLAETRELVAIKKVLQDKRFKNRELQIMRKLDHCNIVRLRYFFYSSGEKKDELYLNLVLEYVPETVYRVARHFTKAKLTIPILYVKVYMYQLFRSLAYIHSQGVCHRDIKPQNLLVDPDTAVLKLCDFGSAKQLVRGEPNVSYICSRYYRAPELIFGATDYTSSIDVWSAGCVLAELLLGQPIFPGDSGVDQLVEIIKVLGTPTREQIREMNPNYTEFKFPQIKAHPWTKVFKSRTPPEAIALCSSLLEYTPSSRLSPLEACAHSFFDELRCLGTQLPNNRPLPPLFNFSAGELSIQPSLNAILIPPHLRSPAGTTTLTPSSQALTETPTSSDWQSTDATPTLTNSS", "format": "functional"}, "[12]": {"biological_target": "BDNF/NT-3 growth factors receptor (Homo sapiens, UniProt Q16620)", "sequence (Q16620 whole entry)": "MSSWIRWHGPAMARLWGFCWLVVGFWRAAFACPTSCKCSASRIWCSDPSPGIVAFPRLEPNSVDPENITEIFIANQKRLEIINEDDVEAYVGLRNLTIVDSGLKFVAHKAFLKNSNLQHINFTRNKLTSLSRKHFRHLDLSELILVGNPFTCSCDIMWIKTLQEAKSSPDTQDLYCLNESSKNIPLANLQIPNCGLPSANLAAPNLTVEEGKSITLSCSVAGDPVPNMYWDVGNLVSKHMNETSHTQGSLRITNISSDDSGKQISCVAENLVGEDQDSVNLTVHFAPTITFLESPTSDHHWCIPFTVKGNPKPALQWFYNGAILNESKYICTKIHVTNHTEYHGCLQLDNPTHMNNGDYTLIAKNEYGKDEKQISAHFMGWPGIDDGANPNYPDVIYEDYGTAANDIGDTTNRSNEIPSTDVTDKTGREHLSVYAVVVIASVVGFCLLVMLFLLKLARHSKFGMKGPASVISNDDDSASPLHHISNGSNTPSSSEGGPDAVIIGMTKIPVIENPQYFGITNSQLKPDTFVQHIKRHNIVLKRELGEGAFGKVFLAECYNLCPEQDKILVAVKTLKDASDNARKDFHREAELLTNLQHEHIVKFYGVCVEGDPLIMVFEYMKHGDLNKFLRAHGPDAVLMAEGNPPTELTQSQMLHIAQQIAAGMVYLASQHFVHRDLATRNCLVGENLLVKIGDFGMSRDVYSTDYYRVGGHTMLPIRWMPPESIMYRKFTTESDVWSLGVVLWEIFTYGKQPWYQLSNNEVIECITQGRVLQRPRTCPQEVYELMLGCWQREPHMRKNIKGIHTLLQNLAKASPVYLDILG", "format": "functional"}, "[13]": {"biological_target": "Serine/threonine-protein kinase Nek4 (Homo sapiens, UniProt P51957)", "sequence (P51957 whole entry)": "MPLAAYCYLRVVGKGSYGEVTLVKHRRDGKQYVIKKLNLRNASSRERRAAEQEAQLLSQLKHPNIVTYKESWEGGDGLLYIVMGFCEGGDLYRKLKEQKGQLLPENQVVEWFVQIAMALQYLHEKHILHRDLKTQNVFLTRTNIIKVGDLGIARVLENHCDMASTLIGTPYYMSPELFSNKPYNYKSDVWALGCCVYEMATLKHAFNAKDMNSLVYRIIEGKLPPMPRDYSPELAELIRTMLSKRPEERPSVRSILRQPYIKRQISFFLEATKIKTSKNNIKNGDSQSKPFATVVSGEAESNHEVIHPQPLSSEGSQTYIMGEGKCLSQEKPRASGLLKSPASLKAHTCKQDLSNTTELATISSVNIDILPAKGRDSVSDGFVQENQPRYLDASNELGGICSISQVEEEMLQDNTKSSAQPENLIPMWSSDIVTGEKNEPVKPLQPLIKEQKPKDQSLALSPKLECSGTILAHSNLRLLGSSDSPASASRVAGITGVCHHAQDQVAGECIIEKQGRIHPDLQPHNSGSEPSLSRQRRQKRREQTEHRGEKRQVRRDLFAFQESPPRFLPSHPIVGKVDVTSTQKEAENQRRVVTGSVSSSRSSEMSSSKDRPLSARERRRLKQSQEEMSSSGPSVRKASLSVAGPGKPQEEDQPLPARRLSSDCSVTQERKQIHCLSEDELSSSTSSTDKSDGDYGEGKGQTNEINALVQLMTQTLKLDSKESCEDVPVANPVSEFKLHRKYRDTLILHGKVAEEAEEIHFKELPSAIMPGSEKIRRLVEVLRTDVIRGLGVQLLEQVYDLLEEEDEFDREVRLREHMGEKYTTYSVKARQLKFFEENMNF", "format": "functional"}, "[14]": {"biological_target": "STE20-like serine/threonine-protein kinase (Homo sapiens, UniProt Q9H2G2)", "format": "functional"}, "[15]": {"biological_target": "Interleukin-1 receptor-associated kinase 4 (Homo sapiens, UniProt Q9NWZ3)", "format": "functional"}, "[16]": {"biological_target": "Casein kinase II subunit alpha (Homo sapiens, UniProt P68400)", "format": "functional"}, "[17]": {"biological_target": "Serine/threonine-protein kinase Nek2 (Homo sapiens, UniProt P51955)", "format": "functional"}, "[18]": {"biological_target": "Death-associated protein kinase 3 (Homo sapiens, UniProt O43293)", "format": "functional"}, "[19]": {"biological_target": "Glucose-6-phosphate 1-dehydrogenase (Homo sapiens, UniProt P11413)", "assay": "human G6PD enzyme inhibitors, dose response, selectivity assay for P. falciparum G6PD inhibitor project, biochemical, fluorescence (AID 504792)", "format": "functional"}, "SUMO-activating enzyme": {"biological_target": "SUMO-activating enzyme (Homo sapiens, UniProt Q9UBT2)", "assay": "inhibitors of in vitro SUMOylation cascade, primary screen, biochemical, HTRF, uHTS (AID 2006)", "format": "protein-complex assay"}, "[20]": {"biological_target": "Matrix metalloproteinase-14 (Homo sapiens, UniProt P50281)", "assay": "Dose Response confirmation of uHTS hits for a small molecule inhibitors of MT1-MMP activation in a fluorescence assay set 2.", "format": "functional"}, "[21]": {"biological_target": "Intestinal-type alkaline phosphatase (Homo sapiens, UniProt P09923)", "assay": "human IAP inhibitors, dose response, biochemical, luminescent, uHTS hits, set 2 (AID 488793)", "format": "functional"}}, "note": "The source made the active and inactive calls."}
{"smiles": "O=C1C=C(N2CCCCC2)c2ccccc2C1=O", "values": [{"measurement": "EC50", "setting": "[1]", "result": "1880 nM (active)"}, {"measurement": "EC50", "setting": "Streptococcus", "result": "> 50000 nM (not active)"}]}
{"smiles": "O=C(CCc1ccccc1)NNc1cc(N2CCCCC2)nc(N2CCCCC2)n1", "values": [{"measurement": "IC50", "setting": "Caspase-3", "result": "> 99000 nM (inactive)"}]}
{"smiles": "Cc1n[nH]c2ccc(-c3cncc(OCC(N)Cc4cccc(Cl)c4)c3)cc12", "note": "(stereo unspecified)", "values": [{"measurement": "Ki", "setting": "[2]", "result": "10 nM (active)"}, {"measurement": "Ki", "setting": "[3]", "result": "316 nM (active)"}, {"measurement": "Ki", "setting": "[4]", "result": "12.6 nM (active)"}, {"measurement": "pKi", "setting": "[4]", "result": 7.9}, {"measurement": "Ki", "setting": "[5]", "result": "> 794 nM (inactive)"}, {"measurement": "Ki", "setting": "[6]", "result": "1260 nM (active)"}, {"measurement": "Ki", "setting": "[7]", "result": "1260 nM (active)"}, {"measurement": "Ki", "setting": "[8]", "result": "> 7940 nM (inactive)"}, {"measurement": "Ki", "setting": "Ephrin type-A receptor 2", "result": "> 3160 nM (inactive)"}, {"measurement": "Ki", "setting": "[9]", "result": "> 2510 nM (inactive)"}, {"measurement": "Ki", "setting": "[10]", "result": "> 1580 nM (inactive)"}, {"measurement": "Ki", "setting": "[11]", "result": "50.1 nM (active)"}, {"measurement": "Ki", "setting": "[12]", "result": "> 5010 nM (inactive)"}, {"measurement": "Ki", "setting": "[13]", "result": "251 nM (active)"}, {"measurement": "Ki", "setting": "[14]", "result": "1000 nM (active)"}, {"measurement": "Ki", "setting": "[15]", "result": "158 nM (active)"}, {"measurement": "Ki", "setting": "[16]", "result": "3980 nM (active)"}, {"measurement": "Ki", "setting": "[17]", "result": "> 10000 nM (inactive)"}, {"measurement": "Ki", "setting": "[18]", "result": "79.4 nM (active)"}]}
{"smiles": "Clc1ccc2nc(-c3ccc(Br)s3)cn2c1", "values": [{"measurement": "IC50", "setting": "[19]", "result": "> 80000 nM (inactive)"}]}
{"smiles": "CC(=O)NC1C(=O)N(CCN2CCOCC2)c2ccc(F)cc21", "note": "(stereo unspecified)", "values": [{"measurement": "IC50", "setting": "SUMO-activating enzyme", "result": "12300 nM (active)"}]}
{"smiles": "Oc1ccc(N=Nc2c(O)ccc3ccccc23)cc1", "values": [{"measurement": "IC50", "setting": "[20]", "result": "22800 nM (inactive)"}, {"measurement": "IC50", "setting": "[21]", "result": "15500 nM (active)"}]}
